The source of these data is patent US20240131028A1, “CHEMOVACCINATION AGAINST PLASMODIUM INFECTION WITH SELECTIVE PLASMEPSIN X INHIBITORS” (Merck Sharp & Dohme LLC, priority 2021, published 2024).

Usually EC50 stands for the concentration giving half of the maximal effect.

Each structure is given as a SMILES string.

The first test concerns ring stage parasites (Pf). The test can be described thus: Parasite lactate dehydrogenase (LDH) growth assay (Parasite Assay, PfLDH Assay). The test is classed as cell-based, P. falciparum. As to conditions: Plasmodium falciparum, 72 h, Table 3; 72 hours growth, LDH readout; read-out: EC50.
Take `CCC1(CC)CC(=O)N(C[C@H]2C(C)[C@@H]2C(=O)N[C@H]2C[C@@H](C(F)(F)F)Oc3ccccc32)C(=N)N1` (stereo partly shown) [Example 28A]: the concentration for a half-maximal effect (EC50) came to 12 nM. As to `CCC1(CC)CC(=O)N(CC2C(C(=O)N[C@H]3C[C@@H](C(F)(F)F)Oc4ccccc43)C2(C)C)C(=N)N1` (stereo partly shown) [Example 31A], the EC50 was found to be 215 nM. Consider `CCC1(CC)CC(=O)N(CC2C(C(=O)N[C@H]3C[C@H](C(F)(F)F)Oc4ccccc43)C2(C)C)C(=N)N1` (stereo partly shown) [Example 31B], for which the EC50 stood at 213 nM. With `CC1(C)CC(=O)N([C@H](c2cccnc2)[C@H]2C[C@@H]2C(=O)N[C@H]2C[C@H](C(F)(F)F)Oc3ccccc32)C(=N)N1` [Example 32], the concentration giving a half-maximal response (EC50) came to 1.8 nM. On to `CCC1(CC)CC(=O)N(C[C@H]2C(C)[C@@H]2C(=O)N[C@@H]2c3ccccc3C[C@H]2O)C(=N)N1` (stereo partly shown) [Example 33], for which the EC50 was determined as 76 nM. Same read-out and setting: the result for `CCC1(CC)CC(=O)N(C[C@@H]2[C@@H](C(=O)N[C@H]3CC(C)(C)Oc4ccccc43)C2(C)C)C(=N)N1` [Example 34] reads 286 nM.

`COc1ccc([C@H]([C@H]2C[C@@H]2C(=O)N[C@H]2C[C@H](C(F)(F)F)Oc3ccccc32)N2C(=N)NC(C)(C)CC2=O)cn1` [Example 37]: the EC50 came to 1.2 nM. Consider `COc1ccc([C@H]([C@H]2C[C@@H]2C(=O)N[C@@H]2c3ccccc3OC(C)(C)[C@H]2O)N2C(=N)NC(C)(C)CC2=O)cn1` [Example 39], for which the EC50 is 10.1 nM.

In the case of `COc1cncc([C@H]([C@H]2C[C@@H]2C(=O)N[C@H]2CC(C)(C)Oc3ccccc32)N2C(=N)NC(C)(C)CC2=O)c1` [Example 40], the EC50 was 3.1 nM. As for `COc1cncc([C@H]([C@H]2C[C@@H]2C(=O)N[C@H]2C[C@H](C(F)(F)F)Oc3ccccc32)N2C(=N)NC(C)(C)CC2=O)c1` [Example 41], the EC50 was found to be 1.1 nM. Same read-out and setting: under `COc1cncc([C@H]([C@H]2C[C@@H]2C(=O)N[C@@H]2c3ccccc3OC(C)(C)[C@H]2O)N2C(=N)NC(C)(C)CC2=O)c1` [Example 42] stands 18.4 nM; under `CC1(C)CC(=O)N([C@H](c2cccnc2)[C@@H]2[C@@H](C(=O)N[C@H]3C[C@H](C(F)(F)F)Oc4ccccc43)C2(C)C)C(=N)N1` [Example 43A], 4 nM.

In the case of `CC1(C)CC(=O)N([C@@H](c2cccnc2)[C@@H]2[C@@H](C(=O)N[C@H]3C[C@H](C(F)(F)F)Oc4ccccc43)C2(C)C)C(=N)N1` [Example 43B], the EC50 amounted to 37 nM. Still for that read-out and setting: under `CCC1(CC)CC(=O)N([C@@H](c2cccnc2)[C@@H]2[C@@H](C(=O)N[C@H]3C[C@H](C(F)(F)F)Oc4ccccc43)C2(C)C)C(=N)N1` [Example 44A] stands 8.3 nM; under `CCC1(CC)CC(=O)N([C@H](c2cccnc2)[C@@H]2[C@@H](C(=O)N[C@H]3C[C@H](C(F)(F)F)Oc4ccccc43)C2(C)C)C(=N)N1` [Example 44B], 0.9 nM; under `CC1(C)CC(=O)N([C@H](c2ccc(C#N)cc2)[C@H]2C[C@@H]2C(=O)N[C@H]2CC(C)(C)Oc3ccccc32)C(=N)N1` [Example 45A], 2.8 nM.

As for `CC1(C)CC(=O)N([C@@H](c2ccc(C#N)cc2)[C@H]2C[C@@H]2C(=O)N[C@H]2CC(C)(C)Oc3ccccc32)C(=N)N1` [Example 45B], the EC50 was 220 nM. On to `CC1(C)CC(=O)N([C@H](c2ccc(C#N)cc2)[C@H]2C[C@@H]2C(=O)N[C@@H]2c3ccccc3OC(C)(C)[C@H]2O)C(=N)N1` [Example 46], for which the half-maximal effective concentration (EC50) is 2.5 nM. Take `CC1(C)CC(=O)N([C@@H](c2ccc(C#N)cc2)[C@H]2C[C@@H]2C(=O)N[C@H]2C[C@H](C(F)(F)F)Oc3ccccc32)C(=N)N1` [Example 47A]: the EC50 was found to be 155 nM. The same measure, in the same setting: under `CC1(C)CC(=O)N([C@H](c2ccc(C#N)cc2)[C@H]2C[C@@H]2C(=O)N[C@H]2C[C@H](C(F)(F)F)Oc3ccccc32)C(=N)N1` [Example 47B] stands 0.9 nM. For the molecule `CCC1(CC)CC(=O)N([C@H](c2cccnc2)[C@@H]2[C@@H](C(=O)N[C@H]3CC(C)(C)Oc4ccccc43)C2(C)C)C(=N)N1` [Example 48A], the EC50 came to 2.7 nM.

As for `CCC1(CC)CC(=O)N([C@@H](c2cccnc2)[C@@H]2[C@@H](C(=O)N[C@H]3CC(C)(C)Oc4ccccc43)C2(C)C)C(=N)N1` [Example 48B], the EC50 came to 7.4 nM.

On to `CC1(C)CC(=O)N(C(c2cccnc2)[C@@H]2[C@@H](C(=O)N[C@H]3CC(C)(C)Oc4ccccc43)C2(C)C)C(=N)N1` (stereo partly shown) [Example 49A], for which the EC50 turned out to be 20 nM.

With `CC1(C)CC(=O)N([C@H](c2cccc(C#N)c2)[C@H]2C[C@@H]2C(=O)N[C@H]2CC(C)(C)Oc3ccccc32)C(=N)N1` [Example 50], the EC50 came to 3 nM. `CC1(C)CC(=O)N([C@H](c2cccc(C#N)c2)[C@H]2C[C@@H]2C(=O)N[C@@H]2c3ccccc3OC(C)(C)[C@H]2O)C(=N)N1` [Example 51]: the EC50 is 5.3 nM.

As to `CC1(C)CC(=O)N([C@H](c2cccc(C#N)c2)[C@H]2C[C@@H]2C(=O)N[C@H]2C[C@H](C(F)(F)F)Oc3ccccc32)C(=N)N1` [Example 52], the EC50 came out at 1 nM. With `CC1(C)CC(=O)N(C(c2cccc(C#N)c2)[C@H]2C[C@@H]2C(=O)NC2CC(C)(C)Oc3ccc(F)cc32)C(=N)N1` (stereo partly shown) [Example 53A], the EC50 amounted to 3.1 nM. As to `CCC1(CC)CC(=O)N([C@@H](c2cccnc2)[C@H]2C(C)[C@@H]2C(=O)N[C@H]2CC(C)(C)Oc3ccccc32)C(=N)N1` (stereo partly shown) [Example 56A], the EC50 amounted to 65 nM.

Consider `CCC1(CC)CC(=O)N([C@H](c2cccnc2)[C@H]2C(C)[C@@H]2C(=O)N[C@H]2CC(C)(C)Oc3ccccc32)C(=N)N1` (stereo partly shown) [Example 56B], for which the EC50 came out at 0.7 nM. Regarding `CC1[C@H]([C@@H](c2cccnc2)N2C(=N)NC(C)(C)CC2=O)[C@H]1C(=O)N[C@H]1CC(C)(C)Oc2ccccc21` (stereo partly shown) [Example 57A], the EC50 is 3.2 nM. Same read-out and setting: the result for `CC1[C@H](C(c2cccnc2)N2C(=N)NC(C)(C)CC2=O)[C@H]1C(=O)N[C@H]1CC(C)(C)Oc2ccccc21` (stereo partly shown) [Example 57B] reads 100 nM; that for `CC1(C)CC(=O)N([C@@H](c2cncc(Cl)c2)[C@H]2C[C@@H]2C(=O)N[C@H]2CC(C)(C)Oc3ccccc32)C(=N)N1` [Example 58A], 210 nM. Same read-out and setting: under `CC1(C)CC(=O)N([C@H](c2cncc(Cl)c2)[C@H]2C[C@@H]2C(=O)N[C@H]2CC(C)(C)Oc3ccccc32)C(=N)N1` [Example 58B] stands 1 nM.

On to `CC1(C)CC(=O)N([C@H](c2cncc(Cl)c2)[C@H]2C[C@@H]2C(=O)N[C@@H]2c3ccccc3OC(C)(C)[C@H]2O)C(=N)N1` [Example 59], for which the EC50 is 3.8 nM.

Still in this test, the particulars now being: Table 3; 72 hours growth, LDH readout; read-out: EC50.
Consider `CCC1(CC)CC(=O)N(C[C@H]2C(C)[C@@H]2C(=O)N[C@H]2C[C@@H](C(F)(F)F)Oc3ccccc32)C(=N)N1` (stereo partly shown) [Example 28B], for which the EC50 was found to be 14 nM. Take `CC1(C)CC(=O)N(C(c2cccnc2)[C@@H]2[C@@H](C(=O)N[C@H]3CC(C)(C)Oc4ccccc43)C2(C)C)C(=N)N1` (stereo partly shown) [Example 49B]: the EC50 was 14 nM.

Turning to `CC1(C)CC(=O)N(C(c2cccc(C#N)c2)[C@H]2C[C@@H]2C(=O)NC2CC(C)(C)Oc3ccc(F)cc32)C(=N)N1` (stereo partly shown) [Example 53B], the EC50 came to 2.1 nM.
